Several values for one entry are separate records, joined by “and”; a condition that tells them apart may be missing. Equal values may be shown once.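 Each compound was tested at five concentrations against cells in 96-well plates for 48 hours. GI50 = concentration required for 50% inhibition of growth. TGI marks complete inhibition of growth.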
Legend:
Assay in all cases: DTP human tumour cell line panel, 48 h
DU-145 prostate = system: DU-145 prostate
SNB-75 CNS = system: SNB-75 CNS
HS 578T breast = system: HS 578T breast
OVCAR-5 ovarian = system: OVCAR-5 ovarian
SK-MEL-5 melanoma = system: SK-MEL-5 melanoma
NCI-H522 lung = system: NCI-H522 lung
MCF7 breast = system: MCF7 breast
CAKI-1 renal = system: CAKI-1 renal
PC-3 prostate = system: PC-3 prostate
M14 melanoma = system: M14 melanoma

Structure (SMILES) | GI50 (DU-145 prostate) | TGI (DU-145 prostate) [µM] | GI50 (SNB-75 CNS) | TGI (SNB-75 CNS) | GI50 (HS 578T breast) | TGI (HS 578T breast) | GI50 (OVCAR-5 ovarian) | TGI (OVCAR-5 ovarian) | GI50 (SK-MEL-5 melanoma) | TGI (SK-MEL-5 melanoma) | GI50 (NCI-H522 lung) | TGI (NCI-H522 lung) | GI50 (MCF7 breast) | TGI (MCF7 breast) [µM] | GI50 (CAKI-1 renal) | TGI (CAKI-1 renal) [µM] | GI50 (PC-3 prostate) | TGI (PC-3 prostate) [µM] | GI50 (M14 melanoma) | TGI (M14 melanoma)
COC[C@@H](N=C1NC(=O)/C(=C/c2ccc3ncccc3c2)S1)c1ccccc1 | 12 µM | > 25 | 4.83 µM | > 22 µM | 7.43 µM | > 23.2 µM | > 25 µM | > 25 µM | 7.51 µM | 24.9 µM | 7.7 µM | > 23.3 µM | 7.24 µM | > 25 | 6.2 µM | > 22.4 | 12.1 µM | > 25 | 13 µM | > 25 µM
COc1ccc2c(c1OC)C[C@@H]1c3c(cc4c(c3-2)OCO4)CCN1C | – | > 100 | – | 52.5 µM | – | > 100 µM | – | > 100 µM | – | 38.1 µM | – | 62.9 µM | – | > 100 | – | > 100 | – | 89.2 | – | 84.8 µM
CC(N)C(Cc1ccc(Cl)cc1)c1ccc(Cl)cc1 (stereo not drawn) | 12.5 µM | 25.7 | 3.76 µM | 18.3 µM | 13.8 µM | 39.7 µM | 12.4 µM | 27.3 µM | 12.4 µM | 25.1 µM | 11.4 µM | 26.1 µM | 2.99 µM | 12.5 | 11.8 µM | 24.1 | 12.8 µM | 26.3 | 5.53 µM | 18.9 µM
CC(=O)Nc1ccc2c(c1)C(c1ccccc1Cl)=Nc1c(n[nH]c1C)N2 | > 22.8 µM | > 25 | 0.732 µM | 6.24 µM | 0.928 µM | > 11.7 µM | 24.6 µM | > 25 µM | 17.6 µM | > 25 µM | > 15.9 µM | > 25 µM | 2.26 µM | > 25 | 2.84 µM | > 22.5 | > 25 µM | > 25 | > 25 µM | > 25 µM
Nc1nccc(-c2c(-c3ccc(F)cc3)ncn2C2CCNCC2)n1 | 7.77 µM and 3.96 µM | > 25 | 2.91 µM and 1.17 µM | > 23.4 µM and 12.7 µM | > 18.3 µM and 5.54 µM | > 25 µM | 9.62 µM and 5.81 µM | > 25 µM | 1.74 µM and 4.23 µM | > 19.9 µM | 6.98 µM and 2.04 µM | > 25 µM and 7.22 µM | 0.62 µM and 0.827 µM | > 17.2 | > 25 µM and 7.29 µM | > 25 | 13.6 µM and 4.05 µM | > 25 | 13.3 µM and 3.85 µM | > 25 µM
O=C(Oc1cccc2cccnc12)c1cc2c(cc1Cl)SC(N(c1ccc(F)cc1)S(=O)(=O)c1ccc(Br)s1)=NS2(=O)=O | 27.3 µM | > 100 | 26.5 µM | 93.5 µM | 38.9 µM | > 100 µM | 26.6 µM | 94.3 µM | 18.2 µM | 39.8 µM | 19.6 µM | 48.3 µM | 21.3 µM | 44 | 31.6 µM | 97.6 | 21.5 µM | 73.9 | 23.9 µM | > 100 µM
OCCN1CCN(CCCN2c3ccccc3Sc3ccc(Cl)cc32)CC1 | 5.04 µM | 16.2 | 3.97 µM | 15.6 µM | 1.98 µM | 5.71 µM | 3.12 µM | 12.1 µM | 1.65 µM | 3 µM | 1.5 µM | 3.13 µM | 2.02 µM | 3.96 | 1.71 µM | 4.52 | 2.64 µM | 12 | 1.88 µM | 3.6 µM
CN(c1ncccc1CNc1nc(Nc2ccc3c(c2)CC(=O)N3)ncc1C(F)(F)F)S(C)(=O)=O | 2.88 µM and 2.74 µM | > 100 | 1.33 µM and 1.51 µM | 4.78 µM and 4.8 µM | 1.73 µM and 2.47 µM | 7.9 µM and > 10 µM | 2.22 µM and 2.7 µM | 60.3 µM and > 10 µM | 2.57 µM and 2.28 µM | 7.44 µM and 5.85 µM | 1.81 µM and 2.24 µM | 5.41 µM and 7.71 µM | 0.948 µM and 1.1 µM | > 27 | 2.15 µM and 2.87 µM | > 52.4 | 2.83 µM and 3 µM | > 35.9 | 1.87 µM and 2.91 µM | 5.49 µM and > 10 µM
CC(C)(Br)C(=O)N1CCN(C(c2ccccc2)c2ccccc2)CC1 | – | > 100 | – | > 100 µM | – | 55.5 µM | – | > 100 µM | – | > 100 µM | – | > 100 µM | – | 81.8 | – | > 100 | – | > 100 | – | > 100 µM
COc1cc2c(cc1OC)[C@@H](Nc1ccc(C#N)cc1)C1COC(=O)[C@@H]1C2c1cc(OC)c(O)c(OC)c1 (stereo partly drawn) | – | > 100 | – | 4 µM and 2.11 µM | – | 7.54 µM | 0.545 µM and 2.05 µM | 95 µM and > 100 µM | 0.499 µM and 0.292 µM | 14.3 µM and 2.53 µM | 1.11 µM and 5.06 µM | – | – | > 100 | 0.223 µM and 0.166 µM | – | – | > 100 | 0.515 µM and 0.342 µM | 95 µM and > 100 µM
O=Nc1ccc(O)c(=O)cc1 | 3.74 µM | 10.8 | 3.77 µM | 17.2 µM | 5.57 µM | > 44.4 µM | 5.49 µM | 17.8 µM | 3.63 µM | 10.6 µM | 0.141 µM | 0.524 µM | 2.73 µM | 14 | 0.936 µM | 5.8 | 3.77 µM | 16.2 | 2.52 µM | 7.01 µM
CCOC(=O)c1ccc(NC(=O)Nc2nncs2)cc1 | 0.309 µM | 4.11 | 0.0832 µM | 19.3 µM | 0.297 µM | 47.4 µM | 0.78 µM | > 100 µM | 0.0672 µM | 5.16 µM | 0.0746 µM | 1.87 µM | 0.116 µM | > 32.9 | 0.427 µM | > 47 | 0.273 µM | 24.2 | 0.104 µM | 3.02 µM
CCN1C(=S)N(c2ccccc2)C2NC(=S)N(/N=C/C=C/c3ccccc3OC)C21 (stereo not drawn) | 0.356 µM | 28.5 | 0.211 µM | 4.36 µM | 0.359 µM | > 100 µM | 0.69 µM | > 100 µM | 0.322 µM | 3.14 µM | 0.224 µM | 1.26 µM | 0.331 µM | > 100 | 0.298 µM | > 100 | 0.398 µM | > 100 | 0.304 µM | > 100 µM
COc1ccc(/C=C(/C#N)C(N)=O)c(OC)c1 | – | > 100 | – | > 100 µM | – | > 100 µM | – | > 100 µM | – | > 100 µM | – | > 100 µM | – | > 100 | – | > 100 | – | > 100 | – | > 100 µM
NS(=O)(=O)c1ccc(Nc2cc(-c3cccc(O)c3)[nH]n2)cc1 | > 25 µM | > 25 | 24.5 µM | > 25 µM | > 25 µM | > 25 µM | > 25 µM | > 25 µM | 14.8 µM | > 25 µM | 22.6 µM | > 25 µM | > 25 µM | > 25 | > 25 µM | > 25 | > 25 µM | > 25 | > 25 µM | > 25 µM
O=S(=O)(NCCCNc1nccc(-c2c(-c3ccc(O)cc3)nc3sccn23)n1)c1ccc(F)cc1 | 2.52 µM | 9.56 | 1.03 µM | 7.91 µM | 2.8 µM | 6.99 µM | 5.58 µM | > 100 µM | 1.21 µM | 2.67 µM | 1.83 µM | 6.27 µM | 2.16 µM | 5.91 | 2.88 µM | > 100 | 3.11 µM | 29 | 0.064 µM | 2.8 µM
CCN(Cc1ccc(C)cc1)c1ccc(CO)c(Cl)c1 | 12.7 µM | 27.4 | 4.8 µM | 20.9 µM | 12.5 µM | 38.2 µM | 0.171 µM | 0.689 µM | 3.84 µM | 17.7 µM | 11.5 µM | 25.7 µM | 0.191 µM | 11 | 0.721 µM | 9.27 | 13.3 µM | 29.5 | 10.5 µM | 23.7 µM

— PubChem BioAssay (NCI)
